Laboratory results reported in ChEMBL document CHEMBL3585275, “Glycosyl hydroperoxides: a new class of potential antimalarial agents” (Bioorg Med Chem, 2015).
Values after ≈ are worked out from the molar mass of the structure shown.

Legend:
Plasmodium falciparum [1] = assay: Antimalarial activity against chloroquine-sensitive Plasmodium falciparum D10 infected in human type A-positive red blood cells assessed as parasite growth inhibition after 72 hrs by lactate dehydrogenase assay; format: functional, organism-based; details: D10, 72 h
Plasmodium falciparum [2] = assay: Antimalarial activity against chloroquine-resistant Plasmodium falciparum W2 infected in human type A-positive red blood cells assessed as parasite growth inhibition after 72 hrs by lactate dehydrogenase assay; format: functional, organism-based; details: W2, 72 h
[3] = Inhibition of hemin crystallization at 0.25 to 10 mol equiv after 18 hrs by spectrophotometric analysis; format: physicochemical

SMILES | IC50 (Plasmodium falciparum [1]) | IC50 (Plasmodium falciparum [2]) | inhibition (INH) [3]
CCCCCCCOC[C@H]1O[C@H](OO)C[C@@H](OCCCCCCC)[C@H]1OCCCCCCC | > 5 µg/mL | > 5 µg/mL | Not Active
CCCCCCCCCCCCOC[C@H]1O[C@H](OO)C[C@@H](OCCCCCCCCCCCC)[C@H]1OCCCCCCCCCCCC | > 5 µg/mL | > 5 µg/mL | Not Active
CCCCCCCCCCCCCCCCCCOC[C@H]1O[C@H](OO)C[C@@H](OCCCCCCCCCCCCCCCCCC)[C@H]1OCCCCCCCCCCCCCCCCCC | > 5 µg/mL | > 5 µg/mL | Not Active
CCCCCCCO[C@H]1C[C@@H](OO)OC[C@H]1OCCCCCCC | 1.42 µg/mL (≈ 4.09 µM) | 1.69 µg/mL (≈ 4.88 µM) | Active
CCCCCCCCCCCCCCCCCC(=O)O[C@@H]1C[C@@H](OO)O[C@H]1[C@@H](O)CO | > 5 µg/mL | > 5 µg/mL | Not Active
C[C@@H]1CC[C@H]2[C@@H](C)C(=O)O[C@@H]3O[C@@]4(C)CC[C@@H]1[C@]32OO4 [ARTEMISININ] | 0.0121 µg/mL (≈ 0.043 µM) | 0.00824 µg/mL (≈ 0.0292 µM) | 
CCN(CC)CCCC(C)Nc1ccnc2cc(Cl)ccc12 (stereo not drawn) [CHLOROQUINE] |  |  | Active
